Measurements taken from patent US20090123907A1 (priority 2004, published 2009).
Values joined by “and” are separate entries in the source; they are usually repeats but may differ in a detail not shown here. Equal entries are not always repeated.

Columns and labels:
[1] = test system: clotting enzyme activation (D-dimers); assay: D-dimer test (DimerTest latex agglutination) for cryptic activation in citrated plasma; type: biochemical
Procedure: The samples were divided into four 1 ml aliquots. To three of the sample aliquots, sufficient concentrated citrate solution was added to achieve 1%, 1.5% or 2% weight/volume citrate, respectively, while the fourth aliquot acted as the control.
As a “worst case” scenario to detect activation, the aliquots were incubated at 21° C. for a maximum of ten days. Each aliquot was assayed daily for the presence of D-dimers using the DimerTest latex agglutination assay (American Diagnostica, Stamford, Conn.). The results are shown in Table 1 where the number of days to observable D-dimers is listed for each aliquot. […] At day six of incubation, 41.2% (14) of the control aliquots were positive for the presence of D-dimers. By day seven, 100% (34) of the normal citrate (0.4%) aliquots were positive for D-dimers.

clot formation = assay: Clotting times (PT, PTT) of anticoagulated whole blood; type: biochemical
Procedure: (§1) In this experiment whole blood (an aliquot of which clotted within 10 minutes without anticoagulant) was modified by adding a number of different anticoagulant compositions. Sodium citrate was used as an anticoagulant at 0.65%, 0.75% and 0.9% by weight. These are all higher citrate levels than the usual 0.4% by weight. Amino acid citrates (lysine or arginine) were used at 0.65%, 0.75% and 0.9% by weight based on the weight of the citric acid. The amino acid counterion was used in sufficient quantity to adjust the pH as explained above.

red blood cells = assay: Red blood cell integrity during storage at 4° C.; type: cell-based; design: MCV Day 20 / MCV Day 33: unit not given here; settings: for RBC Day 1: whole blood; for MCV Day 20 / MCV Day 33: whole blood stored at 4° C.
Procedure: as §1
To judge red cell condition the blood was counted and various other measurements were taken initially and after 20 and 33 days of storage at 4° C. Apparent initial/differences in RBC counts are due to dilution caused by adding extra anticoagulant. Mean cell volume (MCV) is a red cell index that is a useful measure of red cell health. […] It is believed that a citrate level of at least about 1.0% by weight (i.e., more than two times the usual amount) is necessary to ensure against all activation of plasma proteins. […] On the other hand, amino acid citrates, which are very effective anticoagulants, are also effective at preventing red cell damage.

Compound	number of days to observable D-dimers ([1]; 0.4% Citrate, plasma at 21° C., maximum ten days)	aliquots positive for the presence of D-dimers ([1]; 0.4% citrate control aliquots, day six of incubation)	aliquots positive for D-dimers ([1]; 0.4% citrate, by day seven)	aliquots that showed D-dimers by day ten ([1]; additional citrate (1%, 1.5%, 2%))	PT (4 hrs at RT) (clot formation; anticoagulant 0.65 wgt %)	PTT (4 hrs at RT) (clot formation; anticoagulant 0.65 wgt %)	PT (4 hrs at RT) (clot formation; anticoagulant 0.75 wgt %)	PTT (4 hrs at RT) (clot formation; anticoagulant 0.75 wgt %)	PT (4 hrs at RT) (clot formation; anticoagulant 0.90 wgt %)	PTT (4 hrs at RT) (clot formation; anticoagulant 0.90 wgt %)	RBC Day 1 (red blood cells; anticoagulant 0.65 wgt %)	MCV Day 20 (red blood cells; anticoagulant 0.65 wgt %)	MCV Day 33 (red blood cells; anticoagulant 0.65 wgt %)	RBC Day 1 (red blood cells; anticoagulant 0.75 wgt %)	MCV Day 20 (red blood cells; anticoagulant 0.75 wgt %)	MCV Day 33 (red blood cells; anticoagulant 0.75 wgt %)	RBC Day 1 (red blood cells; anticoagulant 0.90 wgt %)	MCV Day 20 (red blood cells; anticoagulant 0.90 wgt %)	MCV Day 33 (red blood cells; anticoagulant 0.90 wgt %)
O=C(O)CC(O)(CC(=O)O)C(=O)O [Citrate]	6 days and 7 days and 5 days	41.2%	100%	None	–	–	–	–	–	–	–	–	–	–	–	–	–	–	–
N=C(N)NCCC[C@H](N)C(=O)O.O=C(O)CC(O)(CC(=O)O)C(=O)O [Arg Citrate, arginine citrate]	–	–	–	–	15.8 s	36.8 s	20.2 s	39.9 s	55 s	56.8 s	5.77 10^6/μl	93.1	93.5	6.45 10^6/μl	92.6	93.6	6.77 10^6/μl	91.5	92.4
